In ChEMBL document CHEMBL3259542, “Design, synthesis and pharmacological evaluation of novel polycyclic heteroarene ethers as PDE10A inhibitors: Part I” (Bioorg Med Chem Lett, 2014):
One block for each compound: values may come before it.

Columns and labels:
[1] = target: T1, cAMP and cAMP-inhibited cGMP 3',5'-cyclic phosphodiesterase 10A (Homo sapiens, UniProt Q9Y233); assay: Inhibition of N-terminal GST-tagged human recombinant PDE10A assessed as substrate hydrolysis using [3H]cAMP as substrate at 1 uM after 30 mins by two-step radiometric assay
[2] = target: T1, cAMP and cAMP-inhibited cGMP 3',5'-cyclic phosphodiesterase 10A; assay: Inhibition of N-terminal GST-tagged human recombinant PDE10A assessed as substrate hydrolysis using [3H]cAMP as substrate after 30 mins by two-step radiometric assay
Liver microsome [3] = assay: Drug level in rat liver microsomes treated with 9-Methyl-3-(2-{[3-(pyrimidin-5-yl)pyridin-2-yl]oxy}ethyl)-9H-pyrido[2,3-b]indole at 1 uM after 60 mins by LC-MS/MS analysis; format: ADME; conditions: 1 h
[4] = Retention time of the compound by HPLC analysis; format: physicochemical
[5] = Metabolic stability in rat liver microsomes assessed as compound remaining at 1 uM after 60 mins; format: ADME; conditions: read-out: Stability
[6] = Metabolic stability in human liver microsomes assessed as compound remaining at 1 uM after 60 mins; format: ADME; conditions: read-out: Stability
[7] = target: cGMP-dependent 3',5'-cyclic phosphodiesterase (Homo sapiens) (UniProt O00408); assay: Inhibition of N-terminal GST-tagged human recombinant PDE2A assessed as substrate hydrolysis using cAMP as substrate at 10 uM after 30 mins by homogenous time-resolved fluorescence method
Homo sapiens = species on record: Homo sapiens; assay: Selectivity for human recombinant PDE10A over human recombinant PDE2A
[8] = target: Dual specificity calcium/calmodulin-dependent 3',5'-cyclic nucleotide phosphodiesterase 1A (Homo sapiens) (UniProt P54750); assay: Inhibition of N-terminal GST-tagged human recombinant PDE1A assessed as substrate hydrolysis using [3H]cAMP as substrate at 1 uM after 30 mins by two-step radiometric assay
[9] = target: cGMP-dependent 3',5'-cyclic phosphodiesterase (Homo sapiens) (UniProt O00408); assay: Inhibition of N-terminal GST-tagged human recombinant PDE2A assessed as substrate hydrolysis using cAMP as substrate at 1 uM after 30 mins by homogenous time-resolved fluorescence method
[10] = target: cGMP-inhibited 3',5'-cyclic phosphodiesterase 3A (Homo sapiens) (UniProt Q14432); assay: Inhibition of N-terminal GST-tagged human recombinant PDE3A assessed as substrate hydrolysis using cAMP as substrate at 1 uM after 30 mins by homogenous time-resolved fluorescence method
[11] = target: 3',5'-cyclic-AMP phosphodiesterase 4D (Homo sapiens) (UniProt Q08499); assay: Inhibition of N-terminal GST-tagged human recombinant PDE4D assessed as substrate hydrolysis using [3H]cAMP as substrate at 1 uM after 30 mins by two-step radiometric assay
[12] = target: cGMP-specific 3',5'-cyclic phosphodiesterase (Homo sapiens) (UniProt O76074); assay: Inhibition of N-terminal GST-tagged human recombinant PDE5A assessed as substrate hydrolysis using [3H]cGMP as substrate at 1 uM after 30 mins by two-step radiometric assay
[13] = target: High affinity 3',5'-cyclic-AMP phosphodiesterase 7A (Homo sapiens) (UniProt Q13946); assay: Inhibition of N-terminal GST-tagged human recombinant PDE7A assessed as substrate hydrolysis using [3H]cAMP as substrate at 1 uM after 30 mins by two-step radiometric assay
[14] = target: High affinity cAMP-specific and IBMX-insensitive 3',5'-cyclic phosphodiesterase 8A (Homo sapiens) (UniProt O60658); assay: Inhibition of N-terminal GST-tagged human recombinant PDE8A assessed as substrate hydrolysis using [3H]cAMP as substrate at 1 uM after 30 mins by two-step radiometric assay
[15] = target: High affinity cGMP-specific 3',5'-cyclic phosphodiesterase 9A (Homo sapiens) (UniProt O76083); assay: Inhibition of N-terminal GST-tagged human recombinant PDE9A assessed as substrate hydrolysis using [3H]cGMP as substrate at 1 uM after 30 mins by two-step radiometric assay
[16] = target: Dual 3',5'-cyclic-AMP and -GMP phosphodiesterase 11A (Homo sapiens) (UniProt Q9HCR9); assay: Inhibition of N-terminal GST-tagged human recombinant PDE11A assessed as substrate hydrolysis using [3H]cAMP as substrate at 1 uM after 30 mins by two-step radiometric assay
[17] = Cmax in Sprague-Dawley rat at 5 mg/kg, po; format: ADME, organism-based; design: dose 5 mg/kg, route oral; conditions: in vivo
[18] = AUC (0 to t) in Sprague-Dawley rat at 5 mg/kg, po; format: ADME, organism-based; design: dose 5 mg/kg, route oral; conditions: plasma
[19] = Drug uptake in Sprague-Dawley rat brain at 5 mg/kg, po after 1 hr; format: ADME, organism-based; design: dose 5 mg/kg, route oral; conditions: read-out: Drug uptake
Liver microsome [20] = assay: Metabolic stability in rat liver microsomes assessed as metabolite M5 (2-(2-(9-methyl-9H-pyrido[2,3-b]indol-3-yl)vinyloxy)-3-(pyrimidin-5-yl)pyridine 1-oxide) formation at 1 uM after 60 mins by LC-MS/MS analysis; format: ADME; conditions: 1 h
Liver microsome [21] = assay: Metabolic stability in rat liver microsomes assessed as metabolite M6 (3-(2-(3-(pyrimidin-5-yl)pyridin-2-yloxy)ethyl)-9H-pyrido[2,3-b]indole) formation at 1 uM after 60 mins by LC-MS/MS analysis; format: ADME; conditions: 1 h
Liver microsome [22] = assay: Metabolic stability in rat liver microsomes assessed as metabolite M7 (9-methyl-3-(2-(3-(pyrimidin-5-yl)pyridin-2-yloxy)vinyl)-9H-pyrido[2,3-b]indole) formation at 1 uM after 60 mins by LC-MS/MS analysis; format: ADME; conditions: 1 h
Liver microsome [23] = assay: Metabolic stability in rat liver microsomes assessed as metabolite M8 (1-(9-methyl-9H-pyrido[2,3-b]indol-3-yl)-2-(3-(pyrimidin-5-yl)pyridin-2-yloxy)ethanol) formation at 1 uM after 60 mins by LC-MS/MS analysis; format: ADME; conditions: 1 h
Liver microsome [24] = assay: Metabolic stability in rat liver microsomes assessed as metabolite M9 (9-methyl-3-(2-(3-(pyrimidin-5-yl)pyridin-2-yloxy)vinyl)-9H-pyrido[2,3-b]indole) formation at 1 uM after 60 mins by LC-MS/MS analysis; format: ADME; conditions: 1 h
Liver microsome [25] = assay: Metabolic stability in rat liver microsomes assessed as metabolite M1 (3-(2-(3-(pyrimidin-5-yl)pyridin-2-yloxy)ethyl)-9H-pyrido[23-b]indole 1-oxide) formation at 1 uM after 60 mins by LC-MS/MS analysis; format: ADME; conditions: 1 h
Liver microsome [26] = assay: Metabolic stability in rat liver microsomes assessed as metabolite M2 (9-methyl-3-(2-(3-(pyrimidin-5-yl)pyridin-2-yloxy)vinyl)-9H-pyrido[2,3-b]indole 9-oxide) formation at 1 uM after 60 mins by LC-MS/MS analysis; format: ADME; conditions: 1 h
Liver microsome [27] = assay: Metabolic stability in rat liver microsomes assessed as metabolite M3 (1-(9H-pyrido[2,3-b]indol-3-yl)-2-(3-(pyrimidin-5-yl)pyridin-2-yloxy)ethanol) formation at 1 uM after 60 mins by LC-MS/MS analysis; format: ADME; conditions: 1 h
Liver microsome [28] = assay: Metabolic stability in rat liver microsomes assessed as metabolite M4 (9-methyl-3-(2-(3-(pyrimidin-5-yl)pyridin-2-yloxy)vinyl)-9H-pyrido[2,3-b]indole 1-oxide) formation at 1 uM after 60 mins by LC-MS/MS analysis; format: ADME; conditions: 1 h

Dual 3',5'-cyclic-AMP and -GMP phosphodiesterase 11A (Homo sapiens), sequence (Q9HCR9 whole entry, looked up): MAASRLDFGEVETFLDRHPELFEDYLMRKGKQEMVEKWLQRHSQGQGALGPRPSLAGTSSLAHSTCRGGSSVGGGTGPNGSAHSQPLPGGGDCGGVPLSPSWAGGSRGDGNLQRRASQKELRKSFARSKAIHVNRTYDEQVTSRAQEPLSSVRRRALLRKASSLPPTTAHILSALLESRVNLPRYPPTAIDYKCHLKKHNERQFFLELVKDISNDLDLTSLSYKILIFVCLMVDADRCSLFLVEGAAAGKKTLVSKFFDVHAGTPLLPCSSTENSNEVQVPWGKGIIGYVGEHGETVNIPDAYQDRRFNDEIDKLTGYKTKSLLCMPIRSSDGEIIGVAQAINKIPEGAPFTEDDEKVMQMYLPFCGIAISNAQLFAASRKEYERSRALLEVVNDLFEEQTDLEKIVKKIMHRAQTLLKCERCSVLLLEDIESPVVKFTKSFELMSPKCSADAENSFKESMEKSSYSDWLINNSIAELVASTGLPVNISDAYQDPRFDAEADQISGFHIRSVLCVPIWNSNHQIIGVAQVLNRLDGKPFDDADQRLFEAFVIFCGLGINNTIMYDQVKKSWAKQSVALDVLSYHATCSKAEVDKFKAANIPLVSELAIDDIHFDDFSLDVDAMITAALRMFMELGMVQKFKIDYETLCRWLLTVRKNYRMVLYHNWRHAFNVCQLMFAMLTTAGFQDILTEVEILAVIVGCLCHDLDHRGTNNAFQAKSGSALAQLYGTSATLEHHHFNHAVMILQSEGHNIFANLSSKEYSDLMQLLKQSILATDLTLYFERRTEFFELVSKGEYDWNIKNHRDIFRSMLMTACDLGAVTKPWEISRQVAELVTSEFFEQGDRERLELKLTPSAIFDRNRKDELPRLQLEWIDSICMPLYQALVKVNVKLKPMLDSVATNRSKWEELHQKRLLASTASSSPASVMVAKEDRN
Dual specificity calcium/calmodulin-dependent 3',5'-cyclic nucleotide phosphodiesterase 1A (Homo sapiens), sequence (P54750 whole entry): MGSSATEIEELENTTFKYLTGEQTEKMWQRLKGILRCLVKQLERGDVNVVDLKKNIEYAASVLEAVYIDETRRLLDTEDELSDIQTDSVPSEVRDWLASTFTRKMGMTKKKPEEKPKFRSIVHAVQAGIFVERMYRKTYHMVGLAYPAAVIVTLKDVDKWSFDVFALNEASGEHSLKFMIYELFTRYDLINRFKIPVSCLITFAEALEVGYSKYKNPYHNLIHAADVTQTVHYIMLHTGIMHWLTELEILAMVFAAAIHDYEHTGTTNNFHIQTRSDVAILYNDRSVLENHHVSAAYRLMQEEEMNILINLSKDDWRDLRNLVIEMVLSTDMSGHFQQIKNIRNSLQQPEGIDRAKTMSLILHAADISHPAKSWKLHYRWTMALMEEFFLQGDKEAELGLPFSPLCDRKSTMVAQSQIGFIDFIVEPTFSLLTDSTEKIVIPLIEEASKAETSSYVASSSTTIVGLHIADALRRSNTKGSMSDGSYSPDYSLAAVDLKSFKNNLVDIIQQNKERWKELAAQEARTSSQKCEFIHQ
cGMP-inhibited 3',5'-cyclic phosphodiesterase 3A (Homo sapiens), sequence (Q14432 whole entry): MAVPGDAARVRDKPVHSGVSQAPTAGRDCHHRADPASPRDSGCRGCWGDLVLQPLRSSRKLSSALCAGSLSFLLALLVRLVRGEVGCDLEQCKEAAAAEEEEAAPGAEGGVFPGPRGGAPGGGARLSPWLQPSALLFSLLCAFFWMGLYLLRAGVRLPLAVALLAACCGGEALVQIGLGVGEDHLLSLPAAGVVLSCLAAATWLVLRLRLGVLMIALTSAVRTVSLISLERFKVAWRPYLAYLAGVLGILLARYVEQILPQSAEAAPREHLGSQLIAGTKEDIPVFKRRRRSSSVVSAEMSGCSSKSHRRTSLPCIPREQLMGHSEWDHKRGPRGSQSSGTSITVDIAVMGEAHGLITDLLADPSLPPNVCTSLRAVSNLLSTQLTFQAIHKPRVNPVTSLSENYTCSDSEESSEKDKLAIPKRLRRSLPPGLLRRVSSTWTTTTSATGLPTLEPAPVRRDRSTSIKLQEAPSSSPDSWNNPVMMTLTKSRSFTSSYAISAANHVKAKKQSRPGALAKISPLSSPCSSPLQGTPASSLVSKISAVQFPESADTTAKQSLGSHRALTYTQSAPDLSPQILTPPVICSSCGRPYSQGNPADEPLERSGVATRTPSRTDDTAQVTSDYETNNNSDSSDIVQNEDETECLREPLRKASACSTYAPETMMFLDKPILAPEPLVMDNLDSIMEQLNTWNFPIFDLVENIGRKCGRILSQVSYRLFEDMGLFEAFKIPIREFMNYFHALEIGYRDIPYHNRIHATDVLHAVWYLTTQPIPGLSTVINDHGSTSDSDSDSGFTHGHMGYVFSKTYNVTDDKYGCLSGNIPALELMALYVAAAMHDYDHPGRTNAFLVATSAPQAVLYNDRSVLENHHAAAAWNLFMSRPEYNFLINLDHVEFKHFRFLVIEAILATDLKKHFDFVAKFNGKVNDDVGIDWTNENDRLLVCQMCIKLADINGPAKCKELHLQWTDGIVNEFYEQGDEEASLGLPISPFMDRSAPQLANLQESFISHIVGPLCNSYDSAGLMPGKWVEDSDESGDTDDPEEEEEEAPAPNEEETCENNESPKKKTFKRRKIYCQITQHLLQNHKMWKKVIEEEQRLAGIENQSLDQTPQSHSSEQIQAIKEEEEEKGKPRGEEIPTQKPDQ
High affinity cAMP-specific and IBMX-insensitive 3',5'-cyclic phosphodiesterase 8A (Homo sapiens), sequence (O60658 whole entry): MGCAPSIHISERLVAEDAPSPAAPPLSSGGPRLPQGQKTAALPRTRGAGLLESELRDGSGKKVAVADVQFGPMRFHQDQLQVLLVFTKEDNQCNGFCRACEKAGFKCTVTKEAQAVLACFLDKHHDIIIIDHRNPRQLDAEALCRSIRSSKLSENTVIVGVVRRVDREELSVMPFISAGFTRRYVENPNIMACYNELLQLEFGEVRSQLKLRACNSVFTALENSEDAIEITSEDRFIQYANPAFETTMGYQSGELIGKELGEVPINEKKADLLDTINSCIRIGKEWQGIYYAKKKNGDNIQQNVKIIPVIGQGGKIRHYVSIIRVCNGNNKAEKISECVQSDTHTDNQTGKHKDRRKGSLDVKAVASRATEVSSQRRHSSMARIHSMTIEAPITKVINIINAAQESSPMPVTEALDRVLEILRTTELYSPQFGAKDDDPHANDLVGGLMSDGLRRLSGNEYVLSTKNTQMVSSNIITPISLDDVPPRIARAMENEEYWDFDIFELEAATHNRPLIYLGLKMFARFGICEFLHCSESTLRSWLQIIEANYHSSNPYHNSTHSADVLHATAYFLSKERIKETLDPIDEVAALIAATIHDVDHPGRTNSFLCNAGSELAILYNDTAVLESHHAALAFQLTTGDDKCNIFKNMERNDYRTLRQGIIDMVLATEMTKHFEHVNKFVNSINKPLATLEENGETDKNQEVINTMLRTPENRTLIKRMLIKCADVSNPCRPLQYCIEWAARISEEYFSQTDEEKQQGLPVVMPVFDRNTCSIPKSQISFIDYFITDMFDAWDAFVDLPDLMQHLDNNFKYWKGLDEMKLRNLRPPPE
cGMP-dependent 3',5'-cyclic phosphodiesterase (Homo sapiens), sequence (O00408 whole entry): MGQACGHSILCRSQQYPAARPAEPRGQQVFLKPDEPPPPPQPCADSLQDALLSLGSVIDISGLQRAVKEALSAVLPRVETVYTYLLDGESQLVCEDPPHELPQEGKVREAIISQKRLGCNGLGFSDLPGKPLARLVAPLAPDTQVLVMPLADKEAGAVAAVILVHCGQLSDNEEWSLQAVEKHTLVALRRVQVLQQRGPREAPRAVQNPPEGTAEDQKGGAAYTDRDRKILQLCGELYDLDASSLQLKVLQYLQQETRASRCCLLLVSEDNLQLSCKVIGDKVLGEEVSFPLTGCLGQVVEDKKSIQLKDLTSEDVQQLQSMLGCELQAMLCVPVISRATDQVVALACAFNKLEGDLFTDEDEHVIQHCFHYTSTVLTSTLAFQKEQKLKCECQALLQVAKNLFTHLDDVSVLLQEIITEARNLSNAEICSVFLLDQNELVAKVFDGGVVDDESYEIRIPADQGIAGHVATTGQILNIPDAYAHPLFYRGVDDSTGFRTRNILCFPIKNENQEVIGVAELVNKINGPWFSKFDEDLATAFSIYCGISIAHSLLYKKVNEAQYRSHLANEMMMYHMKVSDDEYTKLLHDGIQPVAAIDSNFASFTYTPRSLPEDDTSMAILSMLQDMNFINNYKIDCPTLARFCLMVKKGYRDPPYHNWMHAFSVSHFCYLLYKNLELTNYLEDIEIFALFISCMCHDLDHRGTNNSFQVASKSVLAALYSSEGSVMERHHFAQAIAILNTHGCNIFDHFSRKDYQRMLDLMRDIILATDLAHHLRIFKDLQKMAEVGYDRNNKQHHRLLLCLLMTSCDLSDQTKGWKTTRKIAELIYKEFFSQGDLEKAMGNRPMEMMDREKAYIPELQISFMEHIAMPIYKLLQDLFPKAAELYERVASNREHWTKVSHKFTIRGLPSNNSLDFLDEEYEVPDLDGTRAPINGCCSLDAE
High affinity 3',5'-cyclic-AMP phosphodiesterase 7A (Homo sapiens), sequence (Q13946 whole entry): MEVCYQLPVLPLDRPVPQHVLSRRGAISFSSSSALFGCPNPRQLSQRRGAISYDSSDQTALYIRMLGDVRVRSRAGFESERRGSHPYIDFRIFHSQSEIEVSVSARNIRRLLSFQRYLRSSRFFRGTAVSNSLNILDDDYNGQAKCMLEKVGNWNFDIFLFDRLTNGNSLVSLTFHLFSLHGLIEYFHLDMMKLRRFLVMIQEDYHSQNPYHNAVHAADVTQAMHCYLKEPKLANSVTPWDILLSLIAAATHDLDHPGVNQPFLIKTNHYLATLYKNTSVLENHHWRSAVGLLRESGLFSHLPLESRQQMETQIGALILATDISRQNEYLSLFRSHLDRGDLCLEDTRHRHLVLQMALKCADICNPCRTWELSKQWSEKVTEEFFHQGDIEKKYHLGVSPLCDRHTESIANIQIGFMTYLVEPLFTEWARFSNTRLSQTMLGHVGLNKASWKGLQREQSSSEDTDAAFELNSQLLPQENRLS

Compound: [O-][n+]1cc(CCOc2ncccc2-c2cncnc2)cc2c3ccccc3[nH]c21
Drug metabolism (Liver microsome [3]): metabolite_detected
Retention_time [4]: 6.78 min

Compound: Cn1c2ccccc2c2cc(/C=C/Oc3ncccc3-c3cncnc3)c[n+]([O-])c21
Drug metabolism (Liver microsome [3]): metabolite_detected
Retention_time [4]: 9.23 min

Compound: Cn1cc(COc2nccc(-c3ccc(F)cc3)n2)c2nc3ccccc3cc21
inhibition [1]: 12.1%

Compound: C[N+]1([O-])c2ccccc2-c2cc(/C=C/Oc3ncccc3-c3cncnc3)cnc21 (centres undefined)
Drug metabolism (Liver microsome [3]): metabolite_detected
Retention_time [4]: 8.64 min

Compound: c1cnc(OCCc2cnc3[nH]c4ccccc4c3c2)c(-c2cncnc2)c1
Drug metabolism (Liver microsome [3]): metabolite_detected
Retention_time [4]: 10.86 min

Compound: Cn1c2ccccc2c2cc(/C=C/Oc3c(-c4cncnc4)ccc[n+]3[O-])cnc21
Drug metabolism (Liver microsome [3]): metabolite_detected
Retention_time [4]: 9.69 min

Compound: OC(COc1ncccc1-c1cncnc1)c1cnc2[nH]c3ccccc3c2c1 (centres undefined)
Drug metabolism (Liver microsome [3]): metabolite_detected
Retention_time [4]: 9.06 min

Compound: Cn1c2ccccc2c2cc(COc3nccc(-c4ccc(F)cc4)n3)cnc21
inhibition [1]: 23.9%

Compound: Cn1c2ccccc2c2cc(COc3nccnc3-c3cncnc3)cnc21
inhibition [1]: 10.9%

Compound: Cn1c2ccccc2c2cc(CCOc3nccnc3-c3ccc(Cl)cc3)cnc21
inhibition [1]: 87.2%
IC50 [2]: 188 nM

Compound: Cn1c2ccccc2c2cc(CCOc3ncccc3-c3ccncc3)cnc21
inhibition [7]: 60%
Selectivity ratio (Homo sapiens): 100
inhibition [1]: 95.8%
IC50 [2]: 10.4 nM
remaining at 1 h, 1 µM [5]: 0.77%
remaining at 1 h, 1 µM [6]: 0.63%
inhibition [8]: 40.9%
inhibition [9]: 41.4%
inhibition [10]: 0%
inhibition [11]: 0.6%
inhibition [12]: 36.5%
inhibition [13]: 40.5%
inhibition [14]: 11.2%
inhibition [15]: 1.3%
inhibition [16]: 17.4%

Compound: Cn1c2ccccc2c2cc(CCOc3ncccc3-c3cncnc3)cnc21
Drug metabolism (Liver microsome [20]): metabolite_detected
Drug metabolism (Liver microsome [21]): metabolite_detected
Drug metabolism (Liver microsome [22]): metabolite_detected
Drug metabolism (Liver microsome [23]): metabolite_detected
Drug metabolism (Liver microsome [24]): metabolite_detected
Retention_time [4]: 14.51 min
inhibition [7]: 60%
Selectivity ratio (Homo sapiens): 100
inhibition [1]: 92.5%
IC50 [2]: 24.2 nM
remaining at 1 h, 1 µM [5]: 1.93%
remaining at 1 h, 1 µM [6]: 0.45%
inhibition [8]: 10.7%
inhibition [9]: 67.2%
inhibition [10]: 0%
inhibition [11]: 25.8%
inhibition [12]: 23.9%
inhibition [13]: 20.7%
inhibition [14]: 0%
inhibition [15]: 9.8%
inhibition [16]: 12.4%
Drug metabolism (Liver microsome [25]): metabolite_detected
Drug metabolism (Liver microsome [26]): metabolite_detected
Drug metabolism (Liver microsome [27]): metabolite_detected
Drug metabolism (Liver microsome [28]): metabolite_detected

Compound: Cn1c2ccccc2c2cc(CCOc3ncccc3-c3ccc(F)cc3)cnc21
inhibition [1]: 88.5%
IC50 [2]: 68.5 nM

Compound: Cn1c2ccccc2c2cc(C(O)COc3ncccc3-c3cncnc3)cnc21 (centres undefined)
Drug metabolism (Liver microsome [3]): metabolite_detected
Retention_time [4]: 11.55 min

Compound: Cn1c2ccccc2c2cc(COc3nccc(-c4cncnc4)n3)cnc21
inhibition [1]: 23.6%

Compound: Cn1cc(COc2ncccc2-c2cncnc2)c2nc3ccccc3cc21
inhibition [1]: 30.7%

Compound: FC(F)(F)Cn1cc(-c2ccncc2)c(-c2ccc(OCc3ccc4ccccc4n3)cc2)n1
IC50 [2]: 1.41 nM

Other lines, results leading:

inhibition [1]: 83.4%
IC50 [2]: 67.4 nM
Compound: Cn1c2ccccc2c2cc(CCOc3nccnc3-c3cncnc3)cnc21

inhibition [1]: 19.1%
Compound: Cn1c2ccccc2c2cc(CCCOc3ncccc3N3CCOCC3)cnc21

inhibition [1]: 43.1%
IC50 [2]: 3220 nM
Compound: Cn1c2ccccc2c2cc(CCCOc3ncccc3-c3cncnc3)cnc21

inhibition [1]: 82.1%
IC50 [2]: 123 nM
remaining at 1 h, 1 µM [5]: 0.27%
remaining at 1 h, 1 µM [6]: 0.11%
Compound: Cn1cc(CCOc2nccnc2-c2cncnc2)c2nc3ccccc3cc21

inhibition [7]: 60%
Selectivity ratio (Homo sapiens): 100
inhibition [1]: 96.3%
IC50 [2]: 33.2 nM
remaining at 1 h, 1 µM [5]: 41.2%
remaining at 1 h, 1 µM [6]: 51.1%
inhibition [8]: 14%
inhibition [9]: 40.6%
inhibition [10]: 0.4%
inhibition [11]: 3.8%
inhibition [12]: 16.7%
inhibition [13]: 20.8%
inhibition [14]: 2.1%
inhibition [15]: 5.3%
inhibition [16]: 15.8%
Compound: FC(F)n1c2ccccc2c2cc(CCOc3ncccc3-c3cncnc3)cnc21

inhibition [1]: 54.7%
IC50 [2]: 971 nM
remaining at 1 h, 1 µM [5]: 17.5%
remaining at 1 h, 1 µM [6]: 19.6%
Compound: Cn1c2ccccc2c2cc(C3(COc4ncccc4-c4cncnc4)CC3)cnc21

inhibition [7]: 60%
Selectivity ratio (Homo sapiens): 100
inhibition [1]: 85.4%
IC50 [2]: 41.5 nM
remaining at 1 h, 1 µM [5]: 3.19%
remaining at 1 h, 1 µM [6]: 9.92%
inhibition [8]: 13.5%
inhibition [9]: 11.9%
inhibition [10]: 0.1%
inhibition [11]: 0.7%
inhibition [12]: 5.9%
inhibition [13]: 18.3%
inhibition [14]: 0%
inhibition [15]: 1.6%
inhibition [16]: 18.6%
Cmax [17]: 103 ng/mL
AUC(0-t) [18]: 190 ng·h/mL
concentration at 1 h [19]: < 5.4 ng/mL
Compound: Cn1c2ccccc2c2cc(CCOc3nccnc3-c3ccc(F)cc3)cnc21

Drug metabolism (Liver microsome [3]): metabolite_detected
Retention_time [4]: 10.86 min
Compound: Cn1c2ccccc2c2cc(/C=C\Oc3ncccc3-c3cncnc3)cnc21

inhibition [7]: 60%
Selectivity ratio (Homo sapiens): 100
inhibition [1]: 97.2%
IC50 [2]: 11.2 nM
remaining at 1 h, 1 µM [5]: 1.03%
remaining at 1 h, 1 µM [6]: 0.72%
inhibition [8]: 30.1%
inhibition [9]: 34.5%
inhibition [10]: 0.2%
inhibition [11]: 11.9%
inhibition [12]: 13.6%
inhibition [13]: 27%
inhibition [14]: 2%
inhibition [15]: 4.3%
inhibition [16]: 21.7%
Compound: Cn1c2ccccc2c2cc(CCOc3nccnc3-c3ccncc3)cnc21

Drug metabolism (Liver microsome [3]): metabolite_detected
Retention_time [4]: 11.81 min
Compound: Cn1c2ccccc2c2cc(/C=C/Oc3ncccc3-c3cncnc3)cnc21

inhibition [1]: 75.7%
IC50 [2]: 592 nM
Compound: Cn1c2ccccc2c2cc(CCOc3ncccc3-c3ccc(Cl)cc3)cnc21

inhibition [1]: 24.6%
Compound: Cn1cc(COc2ncccc2-c2ccncc2)c2nc3ccccc3cc21

inhibition [1]: 48.9%
IC50 [2]: 5940 nM
Compound: Cn1c2ccccc2c2cc(CCCOc3ncccc3-c3cccnc3F)cnc21
